In ChEMBL document CHEMBL4507297, “Data for DCP probe PF-04457845” (2021):

How the values were obtained:
[1] = system: Tyrosine-protein kinase ABL1 (Homo sapiens), P00519 [F317L]; details: Compound concentration 1000.0 nM
[2] = system: Tyrosine-protein kinase ABL1 (Homo sapiens), P00519 [T315I]; details: Compound concentration 1000.0 nM
[3] = target: Calcium/calmodulin-dependent protein kinase type 1D (Homo sapiens) (UniProt Q8IU85); details: Compound concentration 1000.0 nM
[4] = target: Calcium/calmodulin-dependent protein kinase type II subunit alpha (Homo sapiens) (UniProt Q9UQM7); details: Compound concentration 1000.0 nM
[5] = target: Peripheral plasma membrane protein CASK (Homo sapiens) (UniProt O14936); details: Compound concentration 1000.0 nM
[6] = target: Cyclin-dependent kinase 7 (Homo sapiens) (UniProt P50613); details: Compound concentration 1000.0 nM
[7] = target: Cyclin-dependent kinase 9 (Homo sapiens) (UniProt P50750); details: Compound concentration 1000.0 nM
[8] = target: Dual specificity protein kinase CLK4 (Homo sapiens) (UniProt Q9HAZ1); details: Compound concentration 1000.0 nM
[9] = target: Casein kinase II subunit alpha' (Homo sapiens) (UniProt P19784); details: Compound concentration 1000.0 nM
[10] = target: Dual specificity tyrosine-phosphorylation-regulated kinase 1B (Homo sapiens) (UniProt Q9Y463); details: Compound concentration 1000.0 nM
[11] = system: Epidermal growth factor receptor (Homo sapiens), P00533 [T790M]; details: Compound concentration 1000.0 nM
[12] = target: Ephrin type-B receptor 1 (Homo sapiens) (UniProt P54762); details: Compound concentration 1000.0 nM
[13] = target: Ephrin type-B receptor 3 (Homo sapiens) (UniProt P54753); details: Compound concentration 1000.0 nM
[14] = system: Receptor-type tyrosine-protein kinase FLT3 (Homo sapiens), P36888 [D835V]; details: Compound concentration 1000.0 nM
[15] = system: Receptor-type tyrosine-protein kinase FLT3 (Homo sapiens), P36888 [UNDEFINED MUTATION]; details: Compound concentration 1000.0 nM
[16] = system: Receptor-type tyrosine-protein kinase FLT3 (Homo sapiens), P36888 [N841I]; details: Compound concentration 1000.0 nM
[17] = target: Rhodopsin kinase GRK7 (Homo sapiens) (UniProt Q8WTQ7); details: Compound concentration 1000.0 nM
[18] = system: Mast/stem cell growth factor receptor Kit (Homo sapiens), P10721 [V559D]; details: Compound concentration 1000.0 nM
[19] = target: Mitogen-activated protein kinase kinase kinase 1 (Homo sapiens) (UniProt Q13233); details: Compound concentration 1000.0 nM
[20] = target: Mitogen-activated protein kinase kinase kinase kinase 2 (Homo sapiens) (UniProt Q12851); details: Compound concentration 1000.0 nM
[21] = target: Dual specificity mitogen-activated protein kinase kinase 5 (Homo sapiens) (UniProt Q13163); details: Compound concentration 1000.0 nM
[22] = target: Tyrosine-protein kinase Mer (Homo sapiens) (UniProt Q12866); details: Compound concentration 1000.0 nM
[23] = target: Serine/threonine-protein kinase Nek3 (Homo sapiens) (UniProt P51956); details: Compound concentration 1000.0 nM
[24] = target: Cyclin-dependent kinase 16 (Homo sapiens) (UniProt Q00536); details: Compound concentration 1000.0 nM
[25] = target: Phosphatidylinositol 4-phosphate 5-kinase type-1 gamma (Homo sapiens) (UniProt O60331); details: Compound concentration 1000.0 nM
[26] = target: Phosphatidylinositol 5-phosphate 4-kinase type-2 beta (Homo sapiens) (UniProt P78356); details: Compound concentration 1000.0 nM
[27] = target: Phosphatidylinositol 5-phosphate 4-kinase type-2 gamma (Homo sapiens) (UniProt Q8TBX8); details: Compound concentration 1000.0 nM
[28] = target: Serine/threonine-protein kinase D1 (Homo sapiens) (UniProt Q15139); details: Compound concentration 1000.0 nM
[29] = target: Serine/threonine-protein kinase D2 (Homo sapiens) (UniProt Q9BZL6); details: Compound concentration 1000.0 nM
[30] = target: Serine/threonine-protein kinase SIK3 (Homo sapiens) (UniProt Q9Y2K2); details: Compound concentration 1000.0 nM
[31] = target: Serine/threonine-protein kinase RIO3 (Homo sapiens) (UniProt O14730); details: Compound concentration 1000.0 nM
[32] = target: Ribosomal protein S6 kinase alpha-5 (Homo sapiens) (UniProt O75582); details: Compound concentration 1000.0 nM
[33] = target: Tyrosine-protein kinase receptor Tie-1 (Homo sapiens) (UniProt P35590); details: Compound concentration 1000.0 nM
[34] = target: TRAF2 and NCK-interacting protein kinase (Homo sapiens) (UniProt Q9UKE5); details: Compound concentration 1000.0 nM
[35] = target: Phosphatidylinositol 3-kinase catalytic subunit type 3 (Homo sapiens) (UniProt Q8NEB9); details: Compound concentration 1000.0 nM
[36] = target: D(3) dopamine receptor (Homo sapiens) (UniProt P35462); details: Compound concentration 10.0 uM
[37] = target: T1, Alpha-2A adrenergic receptor (Homo sapiens) (UniProt P08913); details: Compound concentration 10.0 uM
T1 sequence (whole entry): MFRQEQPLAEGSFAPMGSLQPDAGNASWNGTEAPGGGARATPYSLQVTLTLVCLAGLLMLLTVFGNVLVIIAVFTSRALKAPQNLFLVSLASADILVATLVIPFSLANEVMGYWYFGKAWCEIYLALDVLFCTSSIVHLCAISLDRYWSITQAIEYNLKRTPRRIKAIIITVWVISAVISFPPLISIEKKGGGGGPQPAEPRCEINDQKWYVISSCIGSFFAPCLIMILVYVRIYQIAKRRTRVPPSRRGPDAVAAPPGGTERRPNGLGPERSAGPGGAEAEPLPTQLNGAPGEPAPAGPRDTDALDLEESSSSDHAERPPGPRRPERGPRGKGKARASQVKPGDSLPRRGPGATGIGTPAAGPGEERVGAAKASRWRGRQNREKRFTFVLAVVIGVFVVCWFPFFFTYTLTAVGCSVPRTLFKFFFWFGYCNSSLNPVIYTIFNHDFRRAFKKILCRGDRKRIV

[38] = target: Muscarinic acetylcholine receptor M3 (Homo sapiens) (UniProt P20309); details: Compound concentration 10.0 uM

Tyrosine-protein kinase receptor Tie-1 (Homo sapiens), sequence (P35590 whole entry): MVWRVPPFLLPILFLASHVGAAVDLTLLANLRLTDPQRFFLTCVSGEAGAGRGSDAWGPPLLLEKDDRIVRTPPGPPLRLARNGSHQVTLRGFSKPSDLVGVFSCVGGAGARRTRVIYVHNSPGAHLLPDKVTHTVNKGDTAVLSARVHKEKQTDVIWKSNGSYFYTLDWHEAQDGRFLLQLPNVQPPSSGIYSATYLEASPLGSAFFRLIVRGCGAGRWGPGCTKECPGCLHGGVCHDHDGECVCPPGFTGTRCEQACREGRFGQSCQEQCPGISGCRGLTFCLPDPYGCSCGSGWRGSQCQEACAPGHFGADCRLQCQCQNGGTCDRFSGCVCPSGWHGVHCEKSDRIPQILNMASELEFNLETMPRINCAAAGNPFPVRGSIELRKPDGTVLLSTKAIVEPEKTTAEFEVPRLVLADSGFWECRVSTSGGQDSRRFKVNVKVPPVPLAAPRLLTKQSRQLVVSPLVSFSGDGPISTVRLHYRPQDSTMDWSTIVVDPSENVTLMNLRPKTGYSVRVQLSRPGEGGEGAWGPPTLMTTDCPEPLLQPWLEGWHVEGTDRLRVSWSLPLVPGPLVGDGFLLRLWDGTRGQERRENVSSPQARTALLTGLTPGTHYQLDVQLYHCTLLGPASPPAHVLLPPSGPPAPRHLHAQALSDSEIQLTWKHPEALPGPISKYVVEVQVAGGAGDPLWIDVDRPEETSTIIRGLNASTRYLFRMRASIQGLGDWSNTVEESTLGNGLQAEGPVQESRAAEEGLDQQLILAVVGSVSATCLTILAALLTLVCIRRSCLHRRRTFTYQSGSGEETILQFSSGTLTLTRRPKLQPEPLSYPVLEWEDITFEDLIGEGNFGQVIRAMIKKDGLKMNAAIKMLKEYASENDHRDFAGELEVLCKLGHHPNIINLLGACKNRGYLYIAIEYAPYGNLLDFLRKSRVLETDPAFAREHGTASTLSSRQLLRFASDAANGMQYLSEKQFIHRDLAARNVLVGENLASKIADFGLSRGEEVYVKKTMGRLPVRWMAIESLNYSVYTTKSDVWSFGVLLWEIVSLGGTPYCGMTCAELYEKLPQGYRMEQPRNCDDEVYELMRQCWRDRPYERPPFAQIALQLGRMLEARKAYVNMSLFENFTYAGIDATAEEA
Serine/threonine-protein kinase D2 (Homo sapiens), sequence (Q9BZL6 whole entry): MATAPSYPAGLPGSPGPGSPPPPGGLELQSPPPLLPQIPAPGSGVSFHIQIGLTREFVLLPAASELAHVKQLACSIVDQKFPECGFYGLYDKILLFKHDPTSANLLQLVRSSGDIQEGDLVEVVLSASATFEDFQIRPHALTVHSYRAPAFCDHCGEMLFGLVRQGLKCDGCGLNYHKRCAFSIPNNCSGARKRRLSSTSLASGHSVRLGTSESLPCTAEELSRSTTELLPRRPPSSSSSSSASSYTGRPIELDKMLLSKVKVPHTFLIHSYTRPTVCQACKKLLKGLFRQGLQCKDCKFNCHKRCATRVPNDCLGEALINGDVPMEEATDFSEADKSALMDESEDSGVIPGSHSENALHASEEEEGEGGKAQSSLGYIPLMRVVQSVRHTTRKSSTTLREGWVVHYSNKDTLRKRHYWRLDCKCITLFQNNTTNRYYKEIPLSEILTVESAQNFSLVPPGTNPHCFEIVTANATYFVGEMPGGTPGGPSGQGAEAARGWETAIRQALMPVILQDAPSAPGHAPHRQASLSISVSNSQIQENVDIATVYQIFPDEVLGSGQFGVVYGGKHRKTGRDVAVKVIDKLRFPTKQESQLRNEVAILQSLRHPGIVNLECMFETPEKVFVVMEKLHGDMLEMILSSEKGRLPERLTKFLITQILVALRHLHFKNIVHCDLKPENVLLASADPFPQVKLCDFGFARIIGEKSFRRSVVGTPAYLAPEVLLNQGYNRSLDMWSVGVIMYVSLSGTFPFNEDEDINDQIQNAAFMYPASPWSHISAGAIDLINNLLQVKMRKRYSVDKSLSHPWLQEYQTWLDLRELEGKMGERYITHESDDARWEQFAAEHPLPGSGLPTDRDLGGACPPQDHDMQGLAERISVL
D(3) dopamine receptor (Homo sapiens), sequence (P35462 whole entry): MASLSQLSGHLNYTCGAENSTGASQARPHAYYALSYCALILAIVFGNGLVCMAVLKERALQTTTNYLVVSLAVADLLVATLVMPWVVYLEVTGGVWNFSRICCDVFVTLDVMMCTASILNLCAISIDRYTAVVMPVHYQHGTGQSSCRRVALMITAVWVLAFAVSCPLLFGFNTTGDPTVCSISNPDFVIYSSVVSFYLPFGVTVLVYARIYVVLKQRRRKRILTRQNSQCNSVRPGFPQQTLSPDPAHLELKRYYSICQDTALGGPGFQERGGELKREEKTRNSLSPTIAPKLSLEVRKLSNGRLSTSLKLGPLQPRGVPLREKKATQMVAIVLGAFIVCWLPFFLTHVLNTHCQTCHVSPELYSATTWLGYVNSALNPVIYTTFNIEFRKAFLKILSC
Ephrin type-B receptor 1 (Homo sapiens), sequence (P54762 whole entry): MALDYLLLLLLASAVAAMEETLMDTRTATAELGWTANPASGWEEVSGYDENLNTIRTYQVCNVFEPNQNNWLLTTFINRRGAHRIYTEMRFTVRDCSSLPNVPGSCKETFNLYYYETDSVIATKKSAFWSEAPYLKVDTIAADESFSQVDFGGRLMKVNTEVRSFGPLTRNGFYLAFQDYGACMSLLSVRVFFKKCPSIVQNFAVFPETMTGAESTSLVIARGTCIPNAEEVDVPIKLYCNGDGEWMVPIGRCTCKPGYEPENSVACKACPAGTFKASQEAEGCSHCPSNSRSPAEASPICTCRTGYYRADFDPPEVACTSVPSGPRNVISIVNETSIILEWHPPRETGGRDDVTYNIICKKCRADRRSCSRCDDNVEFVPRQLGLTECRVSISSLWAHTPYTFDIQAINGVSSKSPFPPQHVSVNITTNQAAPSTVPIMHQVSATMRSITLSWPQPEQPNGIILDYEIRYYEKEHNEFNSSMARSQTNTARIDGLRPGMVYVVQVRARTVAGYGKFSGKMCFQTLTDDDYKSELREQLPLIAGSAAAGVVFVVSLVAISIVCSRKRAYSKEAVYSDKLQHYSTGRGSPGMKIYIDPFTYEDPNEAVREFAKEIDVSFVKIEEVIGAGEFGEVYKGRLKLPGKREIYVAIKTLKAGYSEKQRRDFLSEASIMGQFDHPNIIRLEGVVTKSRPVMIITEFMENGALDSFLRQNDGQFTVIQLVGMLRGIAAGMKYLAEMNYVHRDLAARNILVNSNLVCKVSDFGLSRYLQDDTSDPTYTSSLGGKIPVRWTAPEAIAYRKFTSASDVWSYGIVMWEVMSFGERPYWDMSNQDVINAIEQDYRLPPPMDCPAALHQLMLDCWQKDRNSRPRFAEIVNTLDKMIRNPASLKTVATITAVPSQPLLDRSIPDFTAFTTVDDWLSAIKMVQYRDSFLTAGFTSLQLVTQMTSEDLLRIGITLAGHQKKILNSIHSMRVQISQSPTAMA
Serine/threonine-protein kinase D1 (Homo sapiens), sequence (Q15139 whole entry): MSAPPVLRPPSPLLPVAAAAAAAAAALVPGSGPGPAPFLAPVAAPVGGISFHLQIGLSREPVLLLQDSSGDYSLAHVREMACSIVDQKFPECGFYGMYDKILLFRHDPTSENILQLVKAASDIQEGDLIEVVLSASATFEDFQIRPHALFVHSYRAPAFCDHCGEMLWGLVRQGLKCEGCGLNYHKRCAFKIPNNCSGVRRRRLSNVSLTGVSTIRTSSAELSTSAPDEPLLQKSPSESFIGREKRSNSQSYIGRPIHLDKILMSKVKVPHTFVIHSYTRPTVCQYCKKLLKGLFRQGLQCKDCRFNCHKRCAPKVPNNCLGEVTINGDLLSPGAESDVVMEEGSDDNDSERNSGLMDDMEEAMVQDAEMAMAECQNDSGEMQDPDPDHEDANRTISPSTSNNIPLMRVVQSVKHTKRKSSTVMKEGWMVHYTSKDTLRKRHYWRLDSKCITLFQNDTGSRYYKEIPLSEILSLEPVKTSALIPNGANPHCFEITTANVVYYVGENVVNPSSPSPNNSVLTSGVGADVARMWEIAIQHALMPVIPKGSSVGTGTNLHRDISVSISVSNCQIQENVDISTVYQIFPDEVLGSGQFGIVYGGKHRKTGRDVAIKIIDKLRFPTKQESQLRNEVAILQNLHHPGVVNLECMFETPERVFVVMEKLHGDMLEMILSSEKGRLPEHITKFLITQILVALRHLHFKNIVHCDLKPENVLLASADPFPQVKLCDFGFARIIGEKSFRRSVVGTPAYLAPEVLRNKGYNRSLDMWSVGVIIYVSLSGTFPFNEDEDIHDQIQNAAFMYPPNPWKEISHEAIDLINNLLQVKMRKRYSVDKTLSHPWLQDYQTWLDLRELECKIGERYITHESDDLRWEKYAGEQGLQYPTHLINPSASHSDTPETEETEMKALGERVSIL
Phosphatidylinositol 4-phosphate 5-kinase type-1 gamma (Homo sapiens), sequence (O60331 whole entry): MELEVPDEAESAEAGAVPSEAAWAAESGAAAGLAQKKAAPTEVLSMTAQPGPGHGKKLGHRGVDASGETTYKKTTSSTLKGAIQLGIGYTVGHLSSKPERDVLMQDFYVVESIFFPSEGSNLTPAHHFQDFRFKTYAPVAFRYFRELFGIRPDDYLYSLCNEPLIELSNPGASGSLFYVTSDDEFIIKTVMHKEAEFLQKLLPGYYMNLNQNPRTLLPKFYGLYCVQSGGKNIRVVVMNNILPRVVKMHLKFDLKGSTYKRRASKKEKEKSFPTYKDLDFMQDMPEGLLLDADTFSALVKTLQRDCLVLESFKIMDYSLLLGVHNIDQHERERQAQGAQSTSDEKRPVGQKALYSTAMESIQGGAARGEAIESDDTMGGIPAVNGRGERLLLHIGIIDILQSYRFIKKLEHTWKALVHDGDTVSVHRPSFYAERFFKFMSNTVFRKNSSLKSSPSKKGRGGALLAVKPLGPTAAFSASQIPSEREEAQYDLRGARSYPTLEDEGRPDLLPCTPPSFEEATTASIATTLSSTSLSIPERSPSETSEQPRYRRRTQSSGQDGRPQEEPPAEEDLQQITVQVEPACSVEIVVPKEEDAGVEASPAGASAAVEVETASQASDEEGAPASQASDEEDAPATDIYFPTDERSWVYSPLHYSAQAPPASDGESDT

O=C(Nc1cccnn1)N1CCC(=Cc2cccc(Oc3ccc(C(F)(F)F)cn3)c2)CC1
inactive: residual activity [1] 100% | residual activity [2] 100% | residual activity [3] 97% | residual activity [4] 72% | residual activity [5] 92% | residual activity [6] 100% | residual activity [7] 93% | residual activity [8] 70% | residual activity [9] 100% | residual activity [10] 100% | residual activity [11] 100% | residual activity [12] 100% | residual activity [13] 81% | residual activity [14] 100% | residual activity [15] 100% | residual activity [16] 69% | residual activity [17] 100% | residual activity [18] 75% | residual activity [19] 100% | residual activity [20] 100% | residual activity [21] 100% | residual activity [22] 81% | residual activity [23] 100% | residual activity [24] 100% | residual activity [25] 66% | residual activity [26] 83% | residual activity [27] 75% | residual activity [28] 100% | residual activity [29] 94% | residual activity [30] 83% | residual activity [31] 100% | residual activity [32] 83% | residual activity [33] 100% | residual activity [34] 100% | residual activity [35] 100% | inhibition [36] 4.08% | inhibition [37] 34.5% | inhibition [38] 27.5%

O=C(Nc1cccnn1)N1CC(C/C=C/c2cncc(Oc3ccc(C(F)(F)F)cn3)n2)C1
inactive: residual activity [1] 58% | residual activity [2] 60% | residual activity [3] 100% | residual activity [4] 100% | residual activity [5] 64% | residual activity [6] 81% | residual activity [7] 100% | residual activity [8] 98% | residual activity [9] 100% | residual activity [10] 100% | residual activity [11] 100% | residual activity [12] 100% | residual activity [13] 100% | residual activity [14] 77% | residual activity [15] 100% | residual activity [16] 62% | residual activity [17] 85% | residual activity [18] 64% | residual activity [19] 66% | residual activity [20] 80% | residual activity [21] 88% | residual activity [22] 100% | residual activity [23] 100% | residual activity [24] 81% | residual activity [25] 100% | residual activity [26] 96% | residual activity [27] 100% | residual activity [28] 100% | residual activity [29] 100% | residual activity [30] 74% | residual activity [31] 100% | residual activity [32] 100% | residual activity [33] 100% | residual activity [34] 92% | residual activity [35] 88% | inhibition [36] -9.59% | inhibition [37] 0.68% | inhibition [38] 0.26%
